Legend:
Format in all cases: cell-based
[1] = test system: multiple myeloma cell lines; assay: Inhibition of proliferation of multiple myeloma cell lines by combinations (cell line not specified); conditions: with Dexamethasone
Method: (§1) All FGFR inhibitors were desolved in DMSO as a 10 mM stock. Serial dilutions, as indicated in each figure, were made as 3× solutions in culture medium before adding to the cell cultures. Dexamethasone and halometasone were dissolved in 100% ethanol as a 10 millimol master stock. Serial dilutions, as indicated in each figure, were made as 3× solutions in culture medium. Cell lines, cell culture and treatment:
(§2) KMS-11 and OPM-2 cell lines can be purchased from HSRRB (Japan) and DSMZ (Germany), respectively. Early passage KMS-11 and OPM-2 cell lines were cultured in RPMI-1640 (ATCC Catalog#30-2001) supplemented with 10% FBS for 1 or 2 passages before treatment. Twenty thousand cells were seeded in each well of a 96-well plate and grew for 24 hours. Cells were then treated in triplicate with vehicle, an FGFR inhibitor (Compound A, B), a glucocorticoid (Dexamethasone or halometasone) alone or a combination at indicated concentrations in 5% CO2 at 37 C for 72 hours. Viability was determined by CellTiter GLO (Promega, Cat#G755B) using identical method as described by the manufacturer. Data analysis:
Raw CellTiter GLO relative […] unit (RFU) values were acquired using a microplate reader (PerkinElmer Precisely, Perkin Elmer Life and Analytical Sciences). Data analysis was performed using the Chalice software developed by CombinatoRx (Zalicus Inc., Cambridge, Mass., USA). […]

[2] = test system: multiple myeloma cell line OPM-2; assay: Cell viability (CellTiter GLO), FGFR inhibitor + glucocorticoid combination, OPM-2; conditions: for CI of Cpd. + 100 nM Dex: 72 hours; for Synergy Score: Loewe Additivity model
Method: (§3) Cell viability was measured by CellTiter GLO. For the combination treatments in FIGS. 1 and 2, the Y axes were cell viability was normalized to the wells treated with dexamethasone alone.
as §1, §2
(§4) Raw CellTiter GLO relative […] unit (RFU) values were acquired using a microplate reader (PerkinElmer Precisely, Perkin Elmer Life and Analytical Sciences). Data analysis was performed using the Chalice software developed by CombinatoRx (Zalicus Inc., Cambridge, Mass., USA). Specifically, the Loewe Additivity (ADD) model was used as the combination reference in the EXAMPLES.

[3] = test system: multiple myeloma cell line KMS-11; assay: Cell viability (CellTiter GLO), FGFR inhibitor + glucocorticoid combination, KMS-11; conditions: for CI of Cpd. + 100 nM Dex: 72 hours; for Synergy Score: Loewe Additivity model
Method: as §3, §1, §2, §4

[4] = Cpd. 0.0001 nM + 100 nM dexamethasone
[5] = Cpd. 0.001 nM + 100 nM dexamethasone
[6] = Cpd. 0.01 nM + 100 nM dexamethasone
[7] = Cpd. 0.1 nM + 100 nM dexamethasone
[8] = Cpd. 1 nM + 100 nM dexamethasone
[9] = Cpd. 10 nM + 100 nM dexamethasone
[10] = Cpd. 100 nM + 100 nM dexamethasone
[11] = Cpd. 1000 nM + 100 nM dexamethasone
[12] = Cpd. 10000 nM + 100 nM dexamethasone
[13] = in combination with Dexamethasone

CCN1CCN(c2ccc(Nc3cc(N(C)C(=O)Nc4c(Cl)c(OC)cc(OC)c4Cl)ncn3)cc2)CC1 [Compound A, 3-(2,6-dichloro-3,5-dimethoxy-phenyl)-1-{6-[4-(4-ethyl-perpazin-1-yl)-phenylamino]-pyrimidin-4-yl}-1-methyl urea]
Reduction by Dexamethasone of the concentration required to achieve 50% of inhibition of proliferation [1]: at least a million fold
CI of Cpd. + 100 nM Dex [2, 4]: 1.39E−01
CI of Cpd. + 100 nM Dex [2, 5]: 5.00E−02
CI of Cpd. + 100 nM Dex [2, 6]: 4.90E−02
CI of Cpd. + 100 nM Dex [2, 7]: 1.50E−02
CI of Cpd. + 100 nM Dex [2, 8]: 1.10E−02
CI of Cpd. + 100 nM Dex [2, 9]: 3.00E−03
CI of Cpd. + 100 nM Dex [2, 10]: 7.00E−03
CI of Cpd. + 100 nM Dex [2, 11]: 5.90E−02
CI of Cpd. + 100 nM Dex [2, 12]: 4.40E−02
Chemical 1 concentration in the combination at 50% growth inhibition [2, 13]: A (0.03) mM
Combination Index (CI) at 50% inhibition [2, 13]: 0.034 ± 0.003
Synergy call [2, 13]: Very strong
Synergy Score [2, 13]: 29
Chemical 1 concentration in the combination at 50% growth inhibition ([2]; in combination with Sicorten): A (1.6) mM
Combination Index (CI) at 50% inhibition ([2]; in combination with Sicorten): 0.282 ± 0.007
Synergy call ([2]; in combination with Sicorten): Strong
Synergy Score ([2]; in combination with Sicorten): 17
Combination effect on cell viability (figure legend) ([2]; with Sicorten): synergistic effect
Combination effect on cell viability (figure legend) ([2]; with dexamethasone): synergistic effect
CI of Cpd. + 100 nM Dex [3, 4]: 6.10E−02
CI of Cpd. + 100 nM Dex [3, 5]: 2.20E−02
CI of Cpd. + 100 nM Dex [3, 6]: 9.00E−03
CI of Cpd. + 100 nM Dex [3, 7]: 5.00E−03
CI of Cpd. + 100 nM Dex [3, 8]: 1.00E−03
CI of Cpd. + 100 nM Dex [3, 9]: 4.17E−05
CI of Cpd. + 100 nM Dex [3, 10]: 1.25E−06
CI of Cpd. + 100 nM Dex [3, 11]: 1.21E−06
CI of Cpd. + 100 nM Dex [3, 12]: 1.43E−12
Chemical 1 concentration in the combination at 50% growth inhibition [3, 13]: A (1.5) mM
Combination Index (CI) at 50% inhibition [3, 13]: 0.077 ± 0.001
Synergy call [3, 13]: Very strong
Synergy Score [3, 13]: 35
Chemical 1 concentration in the combination at 50% growth inhibition ([3]; in combination with Sicorten): A (4.2) mM
Combination Index (CI) at 50% inhibition ([3]; in combination with Sicorten): 0.220 ± 0.006
Synergy call ([3]; in combination with Sicorten): Strong
Synergy Score ([3]; in combination with Sicorten): 10
Combination effect on cell viability (figure legend) ([3]; with Sicorten): synergistic effect
Combination effect on cell viability (figure legend) ([3]; with dexamethasone): synergistic effect

C[C@@H]1C[C@H]2[C@@H]3C[C@H](F)C4=CC(=O)C(Cl)=C[C@]4(C)[C@@]3(F)[C@@H](O)C[C@]2(C)[C@@]1(O)C(=O)CO [Sicorten, halometasone, reference compound]
Chemical 2 concentration in the combination at 50% growth inhibition ([2]; in combination with Compound A): Sicorten (0.03) mM
Chemical 2 concentration in the combination at 50% growth inhibition ([2]; in combination with Compound B): Sicorten (0.02) mM
Chemical 2 concentration in the combination at 50% growth inhibition ([3]; in combination with Compound A): Sicorten (0.01) mM
Chemical 2 concentration in the combination at 50% growth inhibition ([3]; in combination with Compound B): Sicorten (0.02) mM

CCN(CC)CCCCNc1ncc2cc(-c3cc(OC)cc(OC)c3)c(NC(=O)NC(C)(C)C)nc2n1 [Compound E, 1-tert-Butyl-3-[6-(3,5-dimethoxy-phenyl)-2-(4-diethylamino-butylamino)-pyrido[2,3-d]pyrimidin-7-yl]-urea, reference compound]
Combination effect on cell viability (figure legend) ([2]; with dexamethasone): synergistic effect
Combination effect on cell viability (figure legend) ([3]; with dexamethasone): synergistic effect

C[C@@H]1C[C@H]2[C@@H]3CCC4=CC(=O)C=C[C@]4(C)[C@@]3(F)[C@@H](O)C[C@]2(C)[C@@]1(O)C(=O)CO [Dexamethasone, reference compound]
Chemical 2 concentration in the combination at 50% growth inhibition ([2]; in combination with Compound A): (0.30) mM
Chemical 2 concentration in the combination at 50% growth inhibition ([2]; in combination with Compound B): (0.30) mM
Chemical 2 concentration in the combination at 50% growth inhibition ([3]; in combination with Compound A): (0.14) mM
Chemical 2 concentration in the combination at 50% growth inhibition ([3]; in combination with Compound B): (0.32) mM

CN1CCN(c2ccc3nc(-c4c(N)c5c(F)cccc5[nH]c4=O)[nH]c3c2)CC1 [Compound B, 4-amino-5-fluoro-3-[6-(4-methylpiperazin-yl)-1H-benzimidazol-2-yl]quinolin-2(1H)-one]
CI of Cpd. + 100 nM Dex [2, 4]: 1.64E+00
CI of Cpd. + 100 nM Dex [2, 5]: 1.38E+00
CI of Cpd. + 100 nM Dex [2, 6]: 1.17E+00
CI of Cpd. + 100 nM Dex [2, 7]: 1.10E+00
CI of Cpd. + 100 nM Dex [2, 8]: 1.00E+00
CI of Cpd. + 100 nM Dex [2, 9]: 7.94E−01
CI of Cpd. + 100 nM Dex [2, 10]: 1.86E−01
CI of Cpd. + 100 nM Dex [2, 11]: 5.80E−02
CI of Cpd. + 100 nM Dex [2, 12]: 1.00E−03
Chemical 1 concentration in the combination at 50% growth inhibition [2, 13]: B (1.8) mM
Combination Index (CI) at 50% inhibition [2, 13]: 0.350 ± 0.010
Synergy Score [2, 13]: 10
Chemical 1 concentration in the combination at 50% growth inhibition ([2]; in combination with Sicorten): B (10) mM
Combination Index (CI) at 50% inhibition ([2]; in combination with Sicorten): 0.281 ± 0.005
Synergy call ([2]; in combination with Sicorten): Strong
Synergy Score ([2]; in combination with Sicorten): 14
Combination effect on cell viability (figure legend) ([2]; with Sicorten): synergistic effect
Combination effect on cell viability (figure legend) ([2]; with dexamethasone): synergistic effect
CI of Cpd. + 100 nM Dex [3, 4]: 2.71E−01
CI of Cpd. + 100 nM Dex [3, 5]: 1.72E−01
CI of Cpd. + 100 nM Dex [3, 6]: 1.73E−01
CI of Cpd. + 100 nM Dex [3, 7]: 1.32E−01
CI of Cpd. + 100 nM Dex [3, 8]: 1.23E−01
CI of Cpd. + 100 nM Dex [3, 9]: 9.00E−03
CI of Cpd. + 100 nM Dex [3, 10]: 1.00E−03
CI of Cpd. + 100 nM Dex [3, 11]: 4.00E−03
CI of Cpd. + 100 nM Dex [3, 12]: 3.00E−03
Chemical 1 concentration in the combination at 50% growth inhibition [3, 13]: B (0.74) mM
Combination Index (CI) at 50% inhibition [3, 13]: 0.050 ± 0.004
Synergy call [3, 13]: Very strong
Synergy Score [3, 13]: 18
Chemical 1 concentration in the combination at 50% growth inhibition ([3]; in combination with Sicorten): B (0.45) mM
Combination Index (CI) at 50% inhibition ([3]; in combination with Sicorten): 0.371 ± 0.003
Synergy Score ([3]; in combination with Sicorten): 4
Combination effect on cell viability (figure legend) ([3]; with Sicorten): synergistic effect
Combination effect on cell viability (figure legend) ([3]; with dexamethasone): synergistic effect

From patent US20120258940A1, “METHOD FOR TREATING HAEMATOLOGICAL CANCERS” (priority 2009, published 2012)
